From ChEMBL document CHEMBL4177550, “Bi- and Tetracyclic Spirotetronates from the Coal Mine Fire Isolate Streptomyces sp. LC-6-2” (J Nat Prod, 2017)
The source made the active and inactive calls.

Legend:
[1] = test system: Staphylococcus aureus; assay: Antibacterial activity against Staphylococcus aureus ATCC 6538 up to 60 uM after 16 to 48 hrs; type: functional, organism-based
[2] = test system: Salmonella enterica; assay: Antibacterial activity against Salmonella enterica ATCC 10708 up to 60 uM after 16 to 48 hrs; type: functional, organism-based
[3] = test system: Saccharomyces cerevisiae; assay: Antifungal activity against Saccharomyces cerevisiae ATCC 204508 up to 60 uM after 16 to 48 hrs; type: functional, organism-based
[4] = test system: A549; assay: Cytotoxicity against human A549 cells assessed as decrease in cell viability up to 10 uM after 48 hrs by resazurin assay; type: functional, cell-based
[5] = test system: Escherichia coli; assay: Antibacterial activity against Escherichia coli NRRL B-3708 up to 60 uM after 16 to 48 hrs; type: functional, organism-based
[6] = test system: Micrococcus luteus; assay: Antibacterial activity against Micrococcus luteus NRRL B-287 up to 60 uM after 16 to 48 hrs; type: functional, organism-based

Measured: Activity

C[C@@H]1C[C@H](C)/C(O)=C2/C(=O)O[C@]34C[C@@H](C)[C@]5(C)O[C@]23[C@@H](C[C@H]4[C@@H]5O)C1=O
inactive: all assays above

C[C@@H]1C[C@H](C)C(=O)C2=C3O[C@@]4(C)[C@H](CO)C[C@]3(OC2=O)[C@@H](CCC1=O)[C@@H]4O
inactive: all assays above

C[C@@H]1C[C@H](C)/C(O)=C2/C(=O)O[C@]34C[C@@](C)(O)[C@]5(C)O[C@]23[C@@H](C[C@H]4[C@@H]5O)C1=O
inactive: all assays above

CC(=O)C[C@H](C)C(=O)C1=C(O)[C@@]2(C[C@@H](C)C(C)=C[C@H]2/C=C/C(=O)O)OC1=O
inactive: all assays above

CO[C@H]1[C@H]2[C@H](O)[C@@]3(C)O[C@@]45/C(=C(/O)[C@@H](C)C[C@](C)(O)C(=O)[C@H]14)C(=O)O[C@@]25C[C@H]3C
inactive: all assays above

C[C@H]1C[C@](C)(O)C(=O)[C@@H]2[C@@H](O)[C@H]3[C@H](O)[C@@]4(C)O[C@@]25/C(=C\1O)C(=O)O[C@@]35C[C@H]4CO
inactive: all assays above

C[C@@H]1C[C@H](C)/C(O)=C2/C(=O)O[C@]34C[C@@](C)(O)[C@]5(C)O[C@]23[C@@H](C[C@@]42O[C@H]25)C1=O
inactive: all assays above

C[C@@H]1C[C@@]23OC(=O)C4=C2O[C@]1(C)[C@@H](O)[C@@H]3[C@H]1O[C@H]1C(=O)[C@@](C)(O)C[C@H](C)C4=O
inactive: all assays above

C[C@H]1C[C@](C)(O)C(=O)C[C@@H]2/C(=C\1O)C(=O)O[C@]13C[C@H](C)[C@](C)(OC1=O)[C@@H](O)[C@H]23
inactive: all assays above

C[C@@H]1C[C@H](C)/C(O)=C2/C(=O)O[C@]34C[C@@H](CO)[C@]5(C)O[C@]23[C@@H](C[C@H]4[C@@H]5O)C1=O
inactive: all assays above

C[C@@H]1C[C@]23OC(=O)/C4=C(\O)[C@@H](C)C[C@](C)(O)C(=O)[C@@H]5[C@@H](O)[C@H]2[C@H](O)[C@@]1(C)O[C@@]453
inactive: all assays above

C[C@H]1C[C@](C)(O)C(=O)[C@@H]2[C@@H](O)[C@H]3[C@H](O)[C@@]4(C)O[C@@]25/C(=C\1O)C(=O)O[C@@]35C[C@@]4(C)O
inactive: all assays above
